Measurements: US20240002370A1, “PYRROLE-TYPE COMPOUNDS AND USES THEREOF FOR TREATING VIRAL INFECTIONS” (ENYO PHARMA, priority 2020, published 2024)

System: H1N1 (influenza A/New Caledonia/20/99)
Test: microbe, parasite or virus in culture
Format: cell-based
Details: H1N1, A549, 48 h

Row | Structure (SMILES) | IC50
1 | COC1=CC(c2cc3c([nH]2)CCCC3)=N/C1=C\c1[nH]c(C)cc1C [Compound 3, (Z)-2-(2-((3,5-dimethyl-1H-pyrrol-2-yl)methylene)-3-methoxy-2H-pyrrol-5-yl)-4,5,6,7-tetrahydro-1H-indole] | 56 nM
2 | COC1=CC(c2cc3c([nH]2)CCCC3C)=N/C1=C\c1[nH]c(C)cc1C (centres unmarked) [Compound 7, (Z)-2-(2-((3,5-dimethyl-1H-pyrrol-2-yl)methylene)-3-methoxy-2H-pyrrol-5-yl)-4-methyl-4,5,6,7-tetrahydro-1H-indole] | 75 nM
3 | COC1=CC(c2cc3c([nH]2)CCC(C)C3)=N/C1=C\c1[nH]c(C)cc1C (centres unmarked) [Compound 19, (Z)-2-(2-((3,5-dimethyl-1H-pyrrol-2-yl)methylene)-3-methoxy-2H-pyrrol-5-yl)-5-methyl-4,5,6,7-tetrahydro-1H-indole] | 91 nM
4 | COC1=CC(c2cc3c([nH]2)CCCC32CC2)=N/C1=C\c1[nH]c(C)cc1C [Compound 23, (Z)-2′-(2-((3,5-dimethyl-1H-pyrrol-2-yl)methylene)-3-methoxy-2H-pyrrol-5-yl)-1′,5′,6′,7′-tetrahydrospiro[cyclopropane-1,4′-indole]] | 77 nM
5 | COC1=CC(c2cc3ccccc3[nH]2)=N/C1=C\c1[nH]c(C)cc1C [Obatoclax, reference compound] | 91 nM
